Test results reported in patent publication US20140011853A1, “SUBSTITUTED 3-(BIPHENYL-3-YL)-8,8-DIFLUORO-4-HYDROXY-1-AZASPIRO[4.5]DEC-3-EN-2-ONES FOR THERAPY” (BAYER INTELLECTUAL PROPERTY GMBH, priority 2011, published 2014).

What was measured:
[1] = Membrane affinity logMA (MA-Transil); assay type: physicochemical; conditions: buffer pH 7.4
[2] = Plasma protein binding by equilibrium dialysis, rat; assay type: in vitro ADME; conditions: read-out: fu (rat)
Procedure: The binding of test substances to plasma proteins is determined by equilibrium dialysis by means of the Ht-dialysis apparatus (96-well) made of Teflon and a semipermeable membrane (regenerated cellulose, MWCO 12-14K). This separates 150 μl each of a plasma side and a buffer side (50 mM phosphate buffer). The test substance is added in 2 concentrations (usually 3 and 0.3 μM) to the plasma side and binds to plasma proteins. The unbound fraction of the test substance passes through the membrane and is distributed on either side until equilibrium is established (after approx. 6-8 h at 37° C.). The substance concentration on the buffer side and the plasma side is determined by LC-MS analysis. For this, both sides are brought by dilution with buffer or plasma to the same matrix (10% plasma) and then precipitated with methanol. The free (unbound) fraction (fu) is calculated from the quotient of the buffer and plasma concentration. Stability tests and recovery tests are run concurrently as controls. In addition, the substance in buffer is dialysed against buffer, to check the nonspecific binding to apparatus and membrane and establishment of equilibrium. Because during incubation the osmotic pressure of the plasma proteins leads to dilution of the plasma (volume shift), this possible error is determined by weighing blank plasma samples and is included in the calculation of fu. Establishment of equilibrium and plasma stability should have a value not lower than 80% and the recovery should be at least 30%. A free fraction of <1% is regarded as high, between 1 and 10% as moderate and >10% as low plasma protein binding.

[3] = Prediction of human pharmacokinetic parameters and human therapeutic dosage
Procedure: The human pharmacokinetic (PK) parameters (Table 9) were predicted based on the in vivo PK parameters obtained for rats (single species scaling), taking into account the interspecies differences in the free fraction (fu) in the plasma. The effective AUC (area under curve) was determined based on the measured plasma concentration time profile for in vivo efficacy in the PC3 tumour model of the mouse (nu/nu mouse).

[4] = Maximum tolerated dose (MTD) in the mouse; assay type: in vivo; conditions: for Deaths: 21 days; for MTD at 21 days: female, NMRI-nude (nu/nu), mouse, in vivo, oral, 21-day treatment
Procedure: The MTD was defined as the highest dose which could be administered without any animal dying during the treatment phase, and without any body weight loss of more than 10% compared to the initial weight.
Example 1-1 was administered to female nude mice (NMRI nu/nu):
The treatment phase was followed by an observation phase of 21 days.

Row | SMILES | logMA [1] | fraction unbound [2] | calc. AUC (human) ([3]; from mouse dosage 40 mg/kg 2 × per day) | calc. AUC (human) ([3]; from mouse dosage 80 mg/kg 2 × per day) | pred. CL (human) ([3]; predicted (fu-corrected), single species scaling from rat) | Deaths ([4]; 12.5 mg/kg per os, 1 administration per day) | Deaths ([4]; 25 mg/kg per os, 1 administration per day) | Deaths ([4]; 50 mg/kg per os, 1 administration per day) | Deaths ([4]; 50 mg/kg per os, 2 administrations per day) | Deaths ([4]; 75 mg/kg per os, 1 administration per day) | Deaths ([4]; 100 mg/kg per os, 1 administration per day) | MTD at 21 days ([4]; 50 mg/kg, administration twice per day) | MTD at 21 days ([4]; administration once per day)
1 | Cc1ccc(-c2ccc(Cl)cc2)cc1C1=C(O)C2(CCC(F)(F)CC2)NC1=O [Example 1-2, 3-(4′-Chloro-4-methylbiphenyl-3-yl)-8,8-difluoro-4-hydroxy-1-azaspiro[4.5]dec-3-en-2-one] | 1.83 (1.7-1.9, n = 3) |  |  |  |  |  |  |  |  |  |  |  | 
2 | Cc1ccc(-c2ccc(Cl)c(F)c2)cc1C1=C(O)C2(CCC(F)(F)CC2)NC1=O [Example 1-1, 3-(4′-Chloro-3′-fluoro-4-methylbiphenyl-3-yl)-8,8-difluoro-4-hydroxy-1-azaspiro[4.5]dec-3-en-2-one] |  | 0.0027 | 1882 µg·h/mL | 3041 µg·h/mL | 3 mL/h/kg | 0 of 4 | 0 of 4 | 0 of 4 | 0 of 4 | 0 of 4 | 0 of 4 | > 50 mg/kg | > 100 mg/kg
